# Source: US8461176B2, “Enantiomerically enriched aryloazol-2-yl cyanoethylamino compounds, method of making and method of using thereof” (Merial Limited, priority 2008, dated 2013)
# Legend:
# [1] = Feed solubility in ethanol (preparative chiral separation); assay type: physicochemical; conditions: organic solvent or mixture, with stirring and heating
# Protocol: The feed solution was filtered through a 0.2 μm filter before use. The enantiomers were separated using a CHIRALPAK®AD® column (CHIRAL Technologies Inc., 20 μm particle size of amylose tris(3,5-dimethylphenylcarbamate) polysaccharide CHIRALPAK®AD® stationary phase, 5 cm internal diameter, 50 cm length at 25° C. and flow rate of 110 mL/min) with injection volume of 65 mL every 11 min. The fractions collected from the chromatographic process for each of the two chromatographic eluting peaks were concentrated using a a 20 L rotary evaporator at 40° C. and 50 mbar. After solvent removal, the products were dried to constant weight in a vacuum oven at 40° C. The target eutomer (+)-N-[2-(6-Bromo-2H-pyrazolo[4,3-b]pyridin-2-yl)-1-cyano-1-methylethyl]-4-trifluoromethoxybenzamide was isolated from the first eluting peak with a recovery yield of 89.0% (19.3 g). […] The distomer (−)-N-[2-(6-Bromo-2H-pyrazolo[4,3-b]pyridin-2-yl)-1-cyano-1-methylethyl]-4-trifluoromethoxybenzamide was isolated from the second eluting peak with a recovery yield of 94.5% (20.5 g). The percent enantiomeric excess of the distomer is 98.8% as measured via analytical chiral HPLC using a CHIRALPAK®AD® column (CHIRAL Technologies Inc., 4.6×250 mm, at 30° C., flow rate of 0.7 mL/min of EtOH mobile phase, retention time=12.5 min).
# Haemonchus contortus [2] = experiment: Method B: activity against Haemonchus contortus in vivo in Mongolian gerbil; parameters: species or system Mongolian gerbil (Meriones unguiculatus); conditions: po, 72 h, oral gavage, read-out: reduction in nematode infection
# Protocol: Method B: Screening Method to Test Activity of Compounds Against Haemonchus contortus In Vivo in Mongolian Gerbil (Meriones unguiculatus).
# Mongolian gerbils, at least five weeks old, were immunosuppressed and artificially infected with ca. 1000 ensheathed Haemonchus contortus third instar larvae. Six days after infection, the Mongolian gerbils were treated by oral gavage with the test compounds, dissolved in a mixture of 2 parts DMSO and 1 part polyethylene glycol (PEG400), at doses of 100 mg/kg and dissolved in pure polyethylene glycol (PEG400) at doses of 10 and 1 mg/kg. Mongolian gerbils treated only with the placebo (2 parts DMSO and 1 part PEG400 or pure PEG400) served as controls. On day 9 (3 days after treatment) the jirds were euthanized and necropsied for recovery of parasites from the stomach. Efficacy was calculated as the average % reduction in the number of worms in each test group compared with the average number of worms from the control group. […] Compound numbers 1.001, 1.008, 1.012, 1.013 and 1.014 provided at least 95% reduction in nematode in Mongolian gerbils treated by oral gavage with test article at a dose of 100 mg/kg. Compound numbers 1.012, 1.033, 1.064, 2.008, 2.037, 2.038, 2.040, 2.041, 3.001 provided at least 95% reduction in nematode infection at a dose of 10 mg/kg. Compound numbers 1.094, 1.096, 2.048, 3.001, 3.007 and 3.009, provided at least 95% reduction in nematode infection at a dose of 1 mg/kg. Compound numbers 3.006, 3.017 and 3.019 provided at least 95% reduction in nematode infection at a dose of 0.5 mg/kg. Compound numbers 3.005, 3.011 and 3.012 provided at least 95% reduction in nematode infection at a dose of 0.3 mg/kg. The eutomer compound number 3.024 provided at least 95% reduction in nematode infection at a dose of 0.1 mg/kg.
# Haemonchus placei = experiment: Method H: cattle in vivo, Haemonchus placei; conditions: ivermectin alone, 0.2 mg/kg (200 μg/kg) subcutaneously
# Source text: (§1) Method H: Screening Method to Test Activity of Compounds Against Haemonchus placei, Ostertagia ostertagi, Trichostrongylus axei, Cooperia punctata, Bunostomum phlebotomum, Oesophagostomum radiatum, Dictyocaulus viviparus, and Nematodirus helvetianus In Vivo in Cattle.
# (§2) Calves were challenged intra-aurally with larvae from Bunostomum phlebotomum (500-1000 L3 per animal) on Dat −56; and orally with larvae from Oesophagostomum radiatum (1,000-2,000 infective L3 per animal) on Dat −49, Nematodirus helvetianus (3,000-6,000 infective L3 per animal) on Dat −28, Haemonchus placei (5,000-7,000 infective L3 per animal) on Dat −28, Dictyocaulus viviparus (1,000-2,000 infective L3 per animal) on Dat −28, Ostertagia ostertagi (10,000-20,000 infective L3 per animal) on Dat −21, Trichostrongylus axei (10,000-20,000 infective L3 per animal) on Dat −21, Cooperia punctata (10,000-20,000 infective L3 per animal) on Dat −28, and Cooperia oncophora (10,000-20,000 infective L3 per animal) on Dat −21. The test compound was administered alone at a dose of 3 or 6 mg/kg orally or subcutaneously or subcutaneously at a dose of 6 mg/kg in combination with ivermectin at a dose of 50 mcg/kg. For oral administration, test compounds were formulated at a concentration of 10 mg/mL in DMSO/Corn oil (1:1). For subcutaneous administration, test compounds were formulated in propylene glycol/glycerol formal (60:40). All treatments were administered at Day 0. At necropsy on Day 14/15, the abomasa, small intestine and large intestine were removed and processed for parasite recovery. Nematode counts were conducted on appropriate aliquots. Efficacy was calculated for each nematode species by calculating the percent efficacy as 100[(C−T)/C], where C is the mean count among untreated controls and T is the count of the treated animals. Compound number 3.024 provided >95% efficacy against Haemonchus placei, Ostertagia ostertagi, Trichostrongylus axei, Cooperia punctata, Oesophagostomum radiatum and Nematodirus helvetianus at a dose as low as 3 mg/kg administered orally. […]
# [3] = system: ivermectin-resistant Ostertagia circumcincta; experiment: Method I: sheep in vivo, ivermectin-resistant Ostertagia circumcincta; conditions: ivermectin orally at 0.2 mg/kg
# Source text: (§3) Method I: Screening Method to Test Activity of Compounds Against Ivermectin-Resistant Haemonchus contortus, Ostertagia circumcincta, and Trichostrongylus colubriformis In Vivo in Sheep.
# (§4) Sheep were challenged orally with infective 3rd stage larvae (L3) of Ostertagia circumcincta (˜3,000-6,000 infective L3 per animal) on Dat −28, Haemonchus contortus (˜2,000-4,000 infective L3 per animal) on Dat −25, and Trichostrongylus colubriformis (˜3,000-6,000 infective L3 per species per animal) on Dat −23. The inoculation schedule was designed so that nematodes were expected to be in the adult stage on Day 0. Test compounds were dissolved in a mixture of DMSO/Corn oil (1:1) at a concentration of 10 mg/mL. All treatments were administered orally once on Day 0. At sacrifice on Day 14 the abomasum, small intestine and large intestine (including cecum) were removed. Nematode counts were conducted on 10% (abomasal and small intestinal content, abomasal soak) or 20% aliquots (large intestinal content). All nematodes were speciated, or assigned to species based on location of recovery (adult females, fourth-stage larvae) for a total count per species. Efficacy was calculated as the % reduction in the mean number of worms in each test group compared with the mean number of worms recovered from the control group. […]
# [4] = system: ivermectin-resistant Haemonchus contortus; experiment: Method I: sheep in vivo, ivermectin-resistant Haemonchus contortus; conditions: ivermectin orally at 0.2 mg/kg
# Source text: as §3, §4
# Nematodirus helvetianus = experiment: Method H: cattle in vivo, Nematodirus helvetianus; conditions: ivermectin alone, 0.2 mg/kg (200 μg/kg) subcutaneously
# Source text: as §1, §2
# [5] = system: ivermectin-resistant Trichostrongylus columbriformis; experiment: Method I: sheep in vivo, ivermectin-resistant Trichostrongylus colubriformis; conditions: ivermectin orally at 0.2 mg/kg
# Source text: as §3, §4
# Haemonchus contortus [6] = experiment: Method A: screening of activity against Haemonchus contortus L1 larvae in microtitre plate (development to L3 / motility); conditions: Haemonchus contortus, 96 h, 4 days assessment; for inhibition at 0.0025 ppm: test concentration 0.0025 ppm; for inhibition at 0.01 ppm: test concentration 0.01 ppm; for inhibition at 0.6 ppm: test concentration 0.6 ppm
# Source text: Method A: Screening Method to Test Activity of Compounds Against Haemonchus contortus.
molecule,measurement,setting,value
"CC(C#N)(Cn1cc2ncc(Br)cc2n1)NC(=O)c1ccc(OC(F)(F)F)cc1 (stereo not drawn) [Compound 3.011, N-[2-(6-Bromo-2H-pyrazolo[4,3-b]pyridin-2-yl)-1-cyano-1-methylethyl]-4-trifluoromethoxybenzamide]",solubility,[1],8600 µg/mL
same,inhibition in vivo at 0.3 mg/kg,Haemonchus contortus [2],≥ 95%
ivermectin [reference compound],efficacy against Haemonchus placei (ivermectin-resistant strain),Haemonchus placei,less than 70%
same,efficacy against ivermectin-resistant Ostertagia circumcincta,[3],less than 30%
same,activity against ivermectin-resistant Haemonchus contortus,[4],almost completely inactive
same,efficacy against Nematodirus helvetianus,Nematodirus helvetianus,less than 30%
same,efficacy against ivermectin-resistant Trichostrongylus columbriformis,[5],less than 60%
"CC(C#N)(Cn1nc2c(Cl)cc(Cl)c(Cl)c2n1)NC(=O)c1ccc(OC(F)(F)F)cc1 (single isomer, unassigned; (+)) [Compound 1.096, (+)-N-[1-Cyano-1-methyl-2-(4,5,7-trichloro-2H-benzotriazol-2-yl)-ethyl]-4-trifluoromethoxybenzamide]",inhibition in vivo at 1 mg/kg,"Haemonchus contortus [2]; dose 1 mg/kg, necropsy 3 days after treatment",≥ 95%
same,inhibition at 0.0025 ppm,Haemonchus contortus [6],≥ 90%
"CC(C#N)(Cn1cc2c(Cl)cc(Cl)c(Cl)c2n1)NC(=O)c1ccc(Oc2ccccc2)cc1 (stereo not drawn) [Compound 2.067, N-[1-Cyano-1-methyl-2-(4,6,7-trichloro-2H-indazol-2-yl)ethyl]-4-phenoxybenzamide]",inhibition at 0.04 ppm,Haemonchus contortus [6]; test concentration 0.04 ppm,≥ 90%
"CC(C#N)(Cn1cc2ncc(Br)cc2n1)NC(=O)c1ccc(Cl)cc1 (stereo not drawn) [Compound 3.046, N-[2-(6-Bromo-2H-pyrazolo[4,3-b]pyridin-2-yl)-1-cyano-1-methylethyl]-4-chlorobenzamide]",inhibition at 0.15 ppm,Haemonchus contortus [6]; test concentration 0.15 ppm,≥ 90%
"CC(C#N)(Cn1nc2c(Br)cc(Cl)c(Br)c2n1)NC(=O)c1ccc(OC(F)(F)C(F)F)cc1 (stereo not drawn) [Compound 1.099, N-[2-(5-Chloro-4,7-dibromo-2H-benzotriazol-2-yl)-1-cyano-1-methylethyl]-4-(1,1,2,2-tetrafluoroethoxy)benzamide]",inhibition at 0.01 ppm,Haemonchus contortus [6],≥ 90%
"CC(C#N)(Cn1cc2ncccc2n1)NC(=O)c1ccc(OC(F)(F)F)cc1 (stereo not drawn) [Compound 3.045, N-[1-Cyano-1-methyl-2-(2H-pyrazolo[4,3-b]pyridin-2-yl)ethyl]-4-trifluoromethoxybenzamide]",inhibition at 0.6 ppm,Haemonchus contortus [6],≥ 90%
"CC(C#N)(Cn1cc2cc(Br)cnc2n1)NC(=O)c1ccc(OC(F)(F)F)cc1 (stereo not drawn) [Compound 5.001, N-[2-(5-Bromo-2H-pyrazolo[3,4-b]pyridin-2-yl)-1-cyano-1-methylethyl]-4-trifluoromethoxybenzamide]",inhibition at 0.6 ppm,Haemonchus contortus [6],≥ 90%
"CCCCOc1c2ccc(Cl)cc2nn1CC(C)(C#N)NC(=O)c1ccc(OC(F)(F)F)cc1 (stereo not drawn) [Compound 2.031, N-[2-(6-Chloro-3-butoxy-2H-indazol-2-yl)-1-cyano-1-methylethyl]-4-trifluoromethoxybenzamide]",inhibition at 0.6 ppm,Haemonchus contortus [6],≥ 90%
"CC(C#N)(Cn1cc2ncc(Cl)cc2n1)NC(=O)c1ccc(OC(F)(F)F)cc1 (stereo not drawn) [Compound 3.005, N-[2-(6-Chloro-2H-pyrazolo[4,3-b]pyridin-2-yl)-1-cyano-1-methylethyl]-4-trifluoromethoxybenzamide]",inhibition in vivo at 0.3 mg/kg,Haemonchus contortus [2],≥ 95%
"CCCOc1c2ccc(Cl)cc2nn1CC(C)(C#N)NC(=O)c1ccc(OC(F)(F)F)cc1 (stereo not drawn) [Compound 2.029, N-[2-(6-Chloro-3-propoxy-2H-indazol-2-yl)-1-cyano-1-methylethyl]-4-trifluoromethoxybenzamide]",inhibition at 0.6 ppm,Haemonchus contortus [6],≥ 90%
"CC(C#N)(Cn1cc2c(Cl)cc(Cl)c(Cl)c2n1)NC(=O)c1ccc(C(F)(F)F)c(F)c1 (stereo not drawn) [Compound 2.190, N-[1-Cyano-1-methyl-2-(4,6,7-trichloro-2H-indazol-2-yl)ethyl]-3-fluoro-4-trifluoromethylbenzamide]",inhibition at 0.01 ppm,Haemonchus contortus [6],≥ 90%
"CC(C#N)(Cn1nc2c(Cl)cc(Cl)c(Cl)c2n1)NC(=O)c1ccc(C(F)(F)F)cc1 (stereo not drawn) [Compound 1.101, N-[1-Cyano-1-methyl-2-(4,5,7-trichloro-2H-benzotriazol-2-yl)-ethyl]-4-trifluoromethylbenzamide]",inhibition at 0.0025 ppm,Haemonchus contortus [6],≥ 90%
"C[C@](C#N)(Cn1cc2ncc(Br)cc2n1)NC(=O)c1ccc(OC(F)(F)F)cc1 [Compound 3.025, (−)-N-[2-(6-Bromo-2H-pyrazolo[4,3-b]pyridin-2-yl)-1-cyano-1-methylethyl]-4-trifluoromethoxybenzamide]",inhibition in vivo at 0.3 mg/kg,Haemonchus contortus [2],< 95%
same,inhibition at 0.3 ppm,Haemonchus contortus [6]; test concentration 0.3 ppm,< 90%
